# Results: patent US7037962B2, “Composition and process for enhancing bio-mass production in greenhouses” (Ciba Specialty Chemicals Corp., priority 2002, dated 2006)
# Test system: Carnation
# Test: Growth of carnation in greenhouses covered with the film
# Type: in vivo
# Settings: 1% compound 100 in Film A versus Film B
# Protocol: A three layer LDPE/EVA industrial film is prepared by blow molding having the following structure: 200μ thickness, 50μ EVA 5%, 100μ EVA 14% and 50μ EVA 5%. […] Agricultural Tests Two cultivars, namely ‘Jack’ and ‘Samuela’, have been grown under two greenhouses one with film A and the other with film B. The cultivation started on the 18 Sep. 2001 and harvesting started on the 3, Oct. 2001. The cultivation conditions are the standard conditions used in the region.
compound,measurement,value
"CN(C)c1ccc(C=C2C(=O)NC(=O)NC2=O)cc1 [compound 100, condensation product of 4-dimethylaminobenzaldehyde and barbituric acid]",effect on the production and quality of carnation,evident
